Consider 33 molecules from ChEMBL document CHEMBL1139117, “Novel 4-(6,7-dimethoxy-1,2,3,4-tetrahydroisoquinolin-2-yl)methylbenzofuran derivatives as selective alpha(2C)-adrenergic receptor antagonists” (Bioorg Med Chem Lett, 2007).

pKi: −log10 of the molar value. Calls of active or inactive are those of the source. The rule behind the calls is not given here.

The target of data set [1] is T1, Alpha-2B adrenergic receptor (Homo sapiens, UniProt P18089).
T1 sequence (P18089 whole entry): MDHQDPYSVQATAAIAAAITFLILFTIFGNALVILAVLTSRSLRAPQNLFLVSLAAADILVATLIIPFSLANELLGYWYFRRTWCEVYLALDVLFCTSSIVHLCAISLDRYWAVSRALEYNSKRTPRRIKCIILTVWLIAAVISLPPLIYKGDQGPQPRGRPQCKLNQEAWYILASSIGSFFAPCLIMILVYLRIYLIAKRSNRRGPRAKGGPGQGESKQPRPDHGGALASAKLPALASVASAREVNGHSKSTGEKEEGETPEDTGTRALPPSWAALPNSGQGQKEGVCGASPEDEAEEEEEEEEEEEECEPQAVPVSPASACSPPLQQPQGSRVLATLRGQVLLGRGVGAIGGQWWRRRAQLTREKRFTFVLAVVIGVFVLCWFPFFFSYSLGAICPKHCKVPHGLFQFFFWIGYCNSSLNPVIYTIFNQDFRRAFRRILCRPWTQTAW
Briefly: Displacement of [3H]MK912 from adrenergic alpha-2B receptor expressed in COS7 cells. It is filed as cell-based, COS-7.

In data set [2] the target is T2, Alpha-2C adrenergic receptor (Homo sapiens, UniProt P18825).
T2 sequence (P18825 whole entry): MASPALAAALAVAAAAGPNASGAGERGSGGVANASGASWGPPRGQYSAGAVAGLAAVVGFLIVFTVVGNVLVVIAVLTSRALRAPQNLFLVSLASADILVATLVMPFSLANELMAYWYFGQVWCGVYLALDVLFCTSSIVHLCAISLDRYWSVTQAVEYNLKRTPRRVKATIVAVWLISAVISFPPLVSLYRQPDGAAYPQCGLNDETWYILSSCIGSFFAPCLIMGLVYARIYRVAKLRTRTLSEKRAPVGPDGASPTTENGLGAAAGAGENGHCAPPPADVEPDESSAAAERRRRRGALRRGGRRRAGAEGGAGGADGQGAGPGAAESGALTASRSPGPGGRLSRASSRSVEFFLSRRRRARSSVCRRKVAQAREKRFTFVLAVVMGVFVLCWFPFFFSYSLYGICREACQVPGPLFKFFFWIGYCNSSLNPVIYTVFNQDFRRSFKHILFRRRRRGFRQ
Put plainly: Displacement of [3H]MK912 from adrenergic Alpha-2C receptor in HepG2 cells. Format: cell-based. In general terms: Displacement assays read how much labelled ligand stays bound in the presence of the test substance.

In data set [3] the target is T3, Alpha-2A adrenergic receptor (Homo sapiens, UniProt P08913).
T3 sequence (P08913 whole entry): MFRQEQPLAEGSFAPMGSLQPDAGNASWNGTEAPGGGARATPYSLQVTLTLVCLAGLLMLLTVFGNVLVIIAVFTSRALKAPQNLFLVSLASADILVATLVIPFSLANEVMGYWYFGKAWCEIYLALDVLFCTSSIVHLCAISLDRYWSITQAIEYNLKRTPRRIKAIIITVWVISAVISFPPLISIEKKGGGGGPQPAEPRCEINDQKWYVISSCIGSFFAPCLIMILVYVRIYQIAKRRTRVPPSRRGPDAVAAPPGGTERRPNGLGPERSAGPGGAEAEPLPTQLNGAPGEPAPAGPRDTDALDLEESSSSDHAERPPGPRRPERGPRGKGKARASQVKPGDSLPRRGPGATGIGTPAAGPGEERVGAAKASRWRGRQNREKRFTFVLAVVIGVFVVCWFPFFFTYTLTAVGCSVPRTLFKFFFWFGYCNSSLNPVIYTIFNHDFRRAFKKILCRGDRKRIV
Briefly: Displacement of [3H]MK-912 from adrenergic alpha2A receptor in HT29 cells. It is filed as cell-based, HT-29.

Data set [4] concerns Callithrix jacchus. Briefly: Activity against […] induced dyskinetic activity in marmoset at 30 mg/kg, po. Format: functional, organism-based. Also on record: dose 30 mg/kg.
The nature of data set [5]: AUC in mormoset at 2.5 mg/kg. The settings on record: marmoset, plasma. Also on record: dose 2.5 mg/kg. Format: ADME, organism-based, Callithrix jacchus.
In data set [6] the target is T4, Alpha-2C adrenergic receptor (Homo sapiens) (UniProt P18825).
T4 sequence (whole entry): T2 sequence (P18825 whole entry)
Briefly: Displacement of [3H]MK912 from adrenergic alpha-2C receptor in HepG2 cells at 0.1 uM. It is filed as cell-based.

In data set [7] the test system is Callithrix jacchus. Put plainly: Activity against […] induced dyskinetic activity in marmoset at 2.5 mg/kg, po. It is filed as functional, organism-based. Set-up: dose 2.5 mg/kg.
For data set [8], the target named is T5, Alpha-2B adrenergic receptor (Homo sapiens) (UniProt P18089).
T5 sequence (whole entry): T1 sequence (P18089 whole entry)
Briefly: Displacement of [3H]MK912 from adrenergic alpha-2B receptor expressed in COS7 cells at 0.1 uM. The settings on record: COS-7. Format: cell-based.

In data set [9] the target is T6, Alpha-2A adrenergic receptor (Homo sapiens) (UniProt P08913).
T6 sequence (whole entry): T3 sequence (P08913 whole entry)
Put plainly: Displacement of [3H]MK912 from adrenergic alpha2A receptor in HT29 cells at 0.1 uM. It is filed as cell-based. The note with it: HT-29.

For orientation: pKi means −log10 of the Ki, conventionally taken in molar units. A low value points to a large Ki. In general, AUC refers to the area under the concentration-time curve, a measure of exposure. Lower therefore signals less exposure. In general, inhibition refers to the share of the control response that was lost under treatment. A high value points to a strong effect.

Consider `COc1cccc(-c2cc3c(CN4CCc5cc(OC)c(OC)cc5C4)ccc(OC)c3o2)c1`, for which the pKi was 6.09 in data set [1], 7.72 in data set [2] and 5.59 in [3].

As to `COc1cc2c(cc1OC)CN(Cc1ccc(OC)c3oc(C(=O)NC4CN5CCC4CC5)cc13)CC2` (stereo not given), the results for the pKi in data set [1], in data set [2] and in data set [3] were 6.07, 9.10 and 7.38, respectively.

In the case of `COc1cc2c(cc1OC)CN(Cc1ccc(OC)c3oc(C(=O)NCCN(C)C)cc13)CC2`, the pKi in [1] was 5.68; in data set [2], 8.03; in [3], 6.34. Further, the outcome in [4] was inactive. This molecule also returned an AUC in data set [5] of 144 ng·h/mL.

Turning to `COc1cc2c(cc1OC)CN(Cc1ccc(OC)c3oc(C(=O)N4CCC(N5CCCC5)CC4)cc13)CC2`, the pKi was 5.87 in data set [1], 8.46 in [2] and 6.73 in data set [3].

Turning to `COc1cc2c(cc1OC)CN(Cc1ccc(OC)c3oc(-c4ccccc4F)cc13)CC2`, the pKi was 6.52 in data set [1], 7.96 in data set [2] and 6.07 in data set [3].

Take `COc1cc2c(cc1OC)CN(Cc1ccc(OC)c3oc(C(=O)NCCNC(C)=O)cc13)CC2`: the inhibition in [6] is 9%.

`COc1cc2c(cc1OC)CN(Cc1ccc(OC)c3oc(-c4cccnc4)cc13)CC2` registered an inhibition in data set [6] of 62%.

As to `COc1cc2c(cc1OC)CN(Cc1ccc(OC)c3oc(-c4ccccc4C(F)(F)F)cc13)CC2`, the pKi in data set [1] is 6.02; in data set [2], 7.74; in data set [3], 6.52.

As to `COc1cc2c(cc1OC)CN(Cc1ccc(OC)c3oc(-c4ccccc4)cc13)CC2`, the values for the pKi in data set [1], in [2] and in data set [3] were 6.12, 7.70 and 5.76, respectively. The molecule also gave an AUC in [5] of 11 ng·h/mL. Further, in data set [7], the outcome was Active.

Regarding `COc1cc2c(cc1OC)CN(Cc1ccc(OC)c3oc(-c4ccco4)cc13)CC2`, the pKi was 6.80 in data set [1], 8.10 in [2] and 6.69 in [3].

`CCCNC(=O)c1cccc(-c2cc3c(CN4CCc5cc(OC)c(OC)cc5C4)ccc(OC)c3o2)c1`: the inhibition in data set [6] was 48%.

On to `COc1cc2c(cc1OC)CN(Cc1ccc(OC)c3oc(-c4cccc(C(=O)NCCO)c4)cc13)CC2`, for which the inhibition came out at 31% in [8], 54% in data set [6] and 29% in [9].

Turning to `COc1cc2c(cc1OC)CN(Cc1ccc(OC)c3oc(-c4ccccn4)cc13)CC2`, the pKi in [1] was 6.48; in data set [2], 8.02; in [3], 6.87.

In data set [6], `COc1cc2c(cc1OC)CN(Cc1ccc(OC)c3oc(-c4cccc(C#N)c4)cc13)CC2` gave an inhibition of 42%.

In turn, `COc1cc2c(cc1OC)CN(Cc1ccc(OC)c3oc(-c4ccc(C(F)(F)F)cc4)cc13)CC2` showed an inhibition in data set [6] of 18%.

The molecule `COc1cc2c(cc1OC)CN(Cc1cc(OC)c3oc(-c4ccccc4)cc3c1)CC2` had an inhibition in data set [6] of 19%.

Turning to `COc1ccc(CN2CCc3ccccc3C2)c2cc(C(=O)NCCN(C)C)oc12`, the inhibition was found to be 51% in data set [8], 94% in data set [6] and 88% in [9].

`COc1cc2c(cc1OC)CN(Cc1ccc3cc(C(=O)NCCN(C)C)oc3c1OC)CC2`: the inhibition was determined as 15% in data set [8], 65% in data set [6] and 20% in [9].

In the case of `COc1cc2c(cc1OC)CN(Cc1ccc(OC)c3oc(-c4cccc(C(=O)NCCN(C)C)c4)cc13)CC2`, the results for the pKi in data set [1], in data set [2] and in data set [3] were 6.23, 8.03 and 6.67, respectively.

For `COc1cc2c(cc1OC)CN(Cc1cc(OC)c3oc(C(=O)NCCN(C)C)cc3c1)CC2`, the inhibition in data set [6] is 41%.

With `COc1cc2c(cc1OC)CN(Cc1cnc(N)n3nc(-c4ccco4)nc13)CC2`, the pKi in data set [1] is 6.43; in [2] it was 7.72; in [3], 6.40.

Consider `COc1cc2c(cc1OC)CN(Cc1ccc(OC)c3oc(C(=O)NCC(C)(C)N)cc13)CC2`, for which the pKi in data set [1] is 5.81; in data set [2], 8.38; in data set [3], 6.85.

Turning to `COc1cc2c(cc1OC)CN(Cc1ccc(OC)c3oc(C(=O)NCCO)cc13)CC2`, the inhibition in data set [6] came out at 6%.

Consider `COc1cc2c(cc1OC)CN(Cc1ccc(OC)c3oc(-c4cccc(F)c4)cc13)CC2`, for which the results for the inhibition in data set [8], in data set [6] and in [9] were 13%, 52% and 3%, respectively.

Consider `COc1cc2c(cc1OC)CN(Cc1ccc3cc(-c4ccccc4)oc3c1OC)CC2`, for which the inhibition in data set [6] turned out to be 39%.

Molecule `CCCNC(=O)c1cc2c(CN3CCc4cc(OC)c(OC)cc4C3)ccc(OC)c2o1` came in with an inhibition in [6] of 20%.

`COc1ccc(-c2cc3c(CN4CCc5cc(OC)c(OC)cc5C4)ccc(OC)c3o2)cc1`: the inhibition in data set [6] turned out to be 56%.

On to `COc1ccc(CN2CCc3ccccc3C2)c2cc(-c3ccccc3)oc12`, for which the inhibition in data set [8] is 51%; in data set [6], 54%; in data set [9] it was 30%.

As to `COc1cc2c(cc1OC)CN(Cc1ccc(OC)c3oc(-c4ccccc4OC)cc13)CC2`, the values for the inhibition in data set [8], in data set [6] and in data set [9] were 20%, 35% and 11%, respectively.

As to `COc1ccc(CN2CCN(c3ccccc3)CC2)c2cc(C(=O)NCCN(C)C)oc12`, the inhibition worked out at 33% in data set [8], 68% in data set [6] and 80% in data set [9].

In turn, `COc1ccc(CN2CCN(c3ccccc3)CC2)c2cc(-c3ccccc3)oc12` showed an inhibition in data set [6] of 29%.

Molecule `COc1cc2c(cc1OC)CN(Cc1ccc(OC)c3oc(-c4ccncc4)cc13)CC2` had an inhibition in data set [6] of 35%.

As to `COc1cc2c(cc1OC)CN(Cc1ccc(OC)c3oc(-c4ccc(F)cc4)cc13)CC2`, in data set [6], the inhibition came out at 41%.
